# From EP2623495B1, “Positively charged water-soluble prodrugs of n-arylanthranilic acids with very fast skin penetration rate” (Techfields Biochem Co. Ltd, priority 2006, dated 2008)
# Like-named read-outs stand apart in the source and are kept apart here.
# Tests used:
# Solubility in water = details: for solubility: solubility in water
# [1] = J. Pharm. Sci., 82, 227(1993); cited from earlier work
# [2] = Antipyretic activity after sterilized E. coli suspension as a pyrogen; format: in vivo; details: rats, 100 mg/kg transdermally 2 hours after E. coli pyrogen
# Procedure: Antipyretic activity: Rats received a sterilized E. coli suspension as a pyrogen. […] The body temperature of rats was taken at 90 min. intervals before and after the administration of the test compounds. Table 2. Antipyretic Activity of prodrugs of arylanthranilic acids.
# [3] = Gastroduodenal bleeding (fecal blood) after oral administration for 21 days; details: rats, orally 50 mg/kg per day for 21 days
# [4] = Acute toxicity, LD50 orally; details: mouse, in vivo, po; orally in mice; prodrugs
# From the text: The acute toxicity of the prodrugs was investigated.
# [5] = In vitro penetration through human skin in modified Franz cells; format: in vitro ADME; details: for Apparent flux values: human skin 360-400 µm, donor 30% solution (prodrugs) or 30% suspension (parent drugs) in 2mL of pH 7.4 phosphate buffer (0.2M); for diffuses through human skin times faster than the parent drug: prodrug versus mefenamic acid, meclofenamic acid, flufenamic acid, niflumic acid, or flunixin
# [6] = Analgetic activity: prolongation time of the pain threshold of a mouse tail (D'Amour-Smith Method); format: in vivo, mice; details: 50mg/kg transdermally, mouse tails exposed to heat; Figure 3
# Procedure: Analgetic activity: The prolongation time of the pain threshold of a mouse tail was determined in accordance with the D'Amour-Smith Method (J. Pharmacol. Exp. Ther., 72, 74(1941)). After 50mg/kg of these prodrugs were administered transdermally, the tails of mice were exposed to heat and the prolongation time of pain threshold was determined.
# Group A is the control group. • Figure 4. The rate of swelling (%) after a carrageenin injection. […] Group A is the control group. • Figure 5.
# [7] = In vivo penetration through the skin of intact hairless mice, plasma levels by HPLC; details: for peak plasma levels / time to peak levels after application of the donor systems: 20% solution in 1 mL of isopropanol on 10 cm^2 of the backs of hairless mice; for peak plasma levels: plasma levels of parent drug; for time to peak levels after application of the donor systems: transdermal; for difference in peak plasma levels, prodrugs versus parent drugs: topical application, hairless mice
# From the text: (§1) The in vivo rates of penetration of diethylaminoethyl 2-[(2,3-dimethylphenyl)amino]benzoate.AcOH, diethylaminoethyl 2-[(2,6-dichloro-3-methylphenyl)amino]benzoate.AcOH, diethylaminoethyl 2-[[(3-(trifluoromethyl)phenyl)amino]benzoate.AcOH, diethylaminoethyl 2-[[3-(trifluoromethyl)phenyl]amino]-3-pyridinecarboxylate.AcOH, and diethylaminoethyl 2-[[2-methyl-3-(trifluoromethyl)phenyl]amino]-3-pyridinecarboxylate.AcOH, mefenamic acid, meclofenamic acid, flufenamic acid, niflumic acid, and flunixin through the skin of intact hairless mice were compared. The donor consisted of a 20% solution of these compounds in 1 mL of isopropanol applied to a 10 cm^2 on the backs of the hairless mice. Plasma levels of mefenamic acid, meclofenamic acid, flufenamic acid, niflumic acid, and flunixin were determined by a specific high-performance liquid chromatography method.
# [8] = Analgetic activity: acetic acid writhing inhibition; format: in vivo; details: mice; for No. of Writhings: 100 mg/kg transdermally 60 minutes before acetic acid solution intraperitoneally, control group 35.0; for rate of writhings inhibition %: 100 mg/kg transdermally 60 minutes before acetic acid solution, based on the control group
# From the text: The group A is the control group. Table 1. The rate of writhings inhibition by prodrugs of arylanthranilic acids
# [9] = taken orally; cited from earlier work
# [10] = rat, in vivo, po, 50 mg/kg/day, 21 days
# physchem = details: water
# [11] = cited from earlier work
# [12] = hairless, mouse, in vivo
# From the text: as §1
# [13] = parent drugs, given for comparison
Compound,solubility (Solubility in water),body temperature t=0 min. [2],body temperature t=90 min. [2],body temperature t=180 min. [2],body temperature t=270 min. [2],average fecal blood [3],LD50 [4],Apparent flux values [5],diffuses through human skin times faster than the parent drug [5],"analgesic activity, prolongation time of pain threshold (in words) [6]",peak plasma levels [7],time to peak levels after application of the donor systems [7],"difference in peak plasma levels, prodrugs versus parent drugs [7]",No. of Writhings [8],rate of writhings inhibition % [8],time to reach peak plasma level [9],average fecal blood [10],solubility (physchem),peak plasma levels [12],also measured
"CC(=O)O.CCN(CC)CCNC(=O)c1ccccc1Nc1cccc(C)c1C [N-diethylaminoethyl 2-[(2,3-dimethylphenyl)amino] benzoamide.AcOH]",–,–,–,–,–,–,–,–,–,–,–,–,–,–,–,–,–,–,–,solubility in water (Solubility in water): 400 mg/mL
"CCN(CC)CCNC(=O)c1ccccc1Nc1c(Cl)ccc(C)c1Cl [N-diethylaminoethyl 2-[(2,6-dichloro-3-methylphenyl)amino] benzoamide.AcOH]",400 mg/mL,–,–,–,–,–,–,–,–,–,–,–,–,–,–,–,–,–,–,–
"CN(C)CCCC(=O)O[C@H]1CC[C@H]2[C@@H]3CCC4=CC(=O)CC[C@]4(C)[C@H]3CC[C@]12C.Cl [TSBH, testosteronyl-4-dimethylaminobutyrate.HCl]",–,–,–,–,–,–,–,–,–,–,–,–,–,–,–,–,–,–,–,diffuses through human skin times faster than the drug (TS) itself [1]: ~60 times
"CCN(CC)CCOC(=O)c1ccccc1Nc1cccc(C)c1C [diethylaminoethyl 2-[(2,3-dimethylphenyl)amino]benzoate.AcOH]",> 400 mg/mL,37.35±0.06,36.71±0.05,36.60±0.08,36.59±0.07,none,900 mg/kg,2.1 mg/cm^2/h,~200 times,shown analgesic activity nicely,~2 mg/mL,~50 min,approximately 200 times,15.6,55%,–,–,–,–,–
"CCN(CC)CCOC(=O)c1ccccc1Nc1c(Cl)ccc(C)c1Cl [diethylaminoethyl 2-[(2,6-dichloro-3-methylphenyl)amino]benzoate.AcOH]",> 400 mg/mL,37.28±0.06,36.68±0.05,36.62±0.08,36.58±0.07,none,1000 mg/kg,2.0 mg/cm^2/h,~200 times,shown analgesic activity nicely,~2 mg/mL,~50 min,approximately 200 times,14.2,59%,–,–,–,–,–
CCN(CC)CCOC(=O)c1cccnc1Nc1cccc(C(F)(F)F)c1C [diethylaminoethyl 2-[[2-methyl-3-(trifluoromethyl)phenyl]amino]-3-pyridinecarboxylate.AcOH],> 450 mg/mL,37.23±0.06,36.69±0.06,36.52±0.08,36.40±0.07,none,1100 mg/kg,1.7 mg/cm^2/h,~200 times,shown analgesic activity nicely,~2 mg/mL,~50 min,approximately 200 times,15.7,55%,–,–,–,–,solubility in water (Solubility in water): 400 mg/mL
CCN(CC)CCOC(=O)c1cccnc1Nc1cccc(C(F)(F)F)c1 [diethylaminoethyl 2-[[3-(trifluoromethyl)phenyl]amino]-3-pyridinecarboxylate.AcOH],> 450 mg/mL,37.25±0.07,36.82±0.06,36.70±0.05,36.50±0.08,none,750 mg/kg,1.8 mg/cm^2/h,~200 times,shown analgesic activity nicely,~2 mg/mL,~50 min,approximately 200 times,15.2,57%,–,–,–,–,solubility in water (Solubility in water): 400 mg/mL
CCN(CC)CCOC(=O)c1ccccc1Nc1cccc(C(F)(F)F)c1 [diethylaminoethyl 2-[[(3-(trifluoromethyl)phenyl)amino]benzoate.AcOH],> 400 mg/mL,37.27±0.06,36.76±0.05,36.65±0.08,36.49±0.07,none,800 mg/kg,2.2 mg/cm^2/h,~200 times,shown analgesic activity nicely,~2 mg/mL,~50 min,approximately 200 times,16.1,54%,–,–,–,–,–
"O=C(O)c1ccccc1Nc1cccc(C(F)(F)F)c1 [flufenamic acid, 2-[[(3-trifluoromethyl)phenyl]amino]benzoic acid]",–,–,–,–,–,–,–,–,–,–,–,–,–,–,–,2 to 4 h,2-4 mg of fecal blood per gram of feces,< 0.1 mg/mL,~0.01 mg/mL,"LD50 [11, 13]: 715 mg/kg"
"Cc1c(Nc2ncccc2C(=O)O)cccc1C(F)(F)F [flunixin, 2-[[2-methyl-3-(trifluoromethyl)phenyl]amino]-3-pyridinecarboxylic acid]",–,–,–,–,–,–,–,–,–,–,–,–,–,–,–,2 to 4 h,2-4 mg of fecal blood per gram of feces,< 0.1 mg/mL,~0.01 mg/mL,–
"Cc1ccc(Cl)c(Nc2ccccc2C(=O)O)c1Cl [meclofenamic acid, 2-[(2,6-dichloro-3-methylphenyl)amino]benzoic acid]",–,–,–,–,–,–,–,–,–,–,–,–,–,–,–,2 to 4 h,2-4 mg of fecal blood per gram of feces,< 0.1 mg/mL,~0.01 mg/mL,–
"Cc1cccc(Nc2ccccc2C(=O)O)c1C [mefenamic acid, 2-[(2,3-Dimethylphenyl)amino]benzoic acid]",–,–,–,–,–,–,–,–,–,–,–,–,–,–,–,2 to 4 h,2-4 mg of fecal blood per gram of feces,< 0.1 mg/mL,~0.01 mg/mL,"LD50 ([11]; mouse, in vivo): 600 mg/kg"
"O=C(O)c1cccnc1Nc1cccc(C(F)(F)F)c1 [niflumic acid, 2-[[3-(trifluoromethyl)phenyl]amino]-3-pyridinecarboxylic acid]",–,–,–,–,–,–,–,–,–,–,–,–,–,–,–,2 to 4 h,2-4 mg of fecal blood per gram of feces,< 0.1 mg/mL,~0.01 mg/mL,"LD50 [11, 13]: 650 mg/kg"
